Patent publication US20110039721A1, “METHOD FOR PREDICTION ABOUT CARCINOGENICITY OF SUBSTANCE IN RODENT” (Chemicals Evaluation and Research Institute, priority 2007, published 2011)

Test system: mRNA expressed from the genes (A) to (D) in rat liver
Assay: Behavior of genes (mRNA expression level, oligo-DNA microarray) in rat liver after 28-day oral administration
Format: in vivo
Conditions: mRNA vs vehicle control group
Method: A test solution was prepared by dissolving each of the carcinogens and the non-carcinogens shown in Tables 2 to 6 in the corresponding solvent shown in Tables 2 to 6. Each of the thus prepared test solutions and the solvents used for the preparation was administered by oral gavage to rats in each group. As the rats, male rats (F344 SPF rats) at 5 weeks of age obtained from Charles River Laboratories Japan, Inc. were used. The animals were divided into groups, each containing four individuals. The volume of the solvent administered to the vehicle control group was set to the same volume as that of the test solution administered to the carcinogen administration group or the non-carcinogen administration group. The administration of the test solution or the solvent was performed once daily for 28 days. Apiece was excised from the liver of each of the rats after a lapse of 28 days from the initiation of the administration, and the total RNA was extracted and purified.
The expression level of mRNA was compared between each of the chemical substance administration groups and the corresponding vehicle control group, and genes that satisfy the requirements described in (A) to (D) were selected, respectively.
The case where the expression level of mRNA in the carcinogen administration group or the non-carcinogen administration group is 1.5 times or more or 1/1.5 or less of the expression level of the corresponding mRNA expressed in the control group was determined to be significant. In this connection, the determination as to whether or not the change is significant was performed by taking into consideration the direction of increase or decrease in the expression level. In the case where the direction of increase or decrease is different as compared with the case where another carcinogen was administered, the change was determined to be not significant.

[1] = gene group (A), Unigene No. Rn.167075
[2] = gene group (C), Unigene No. Rn.120914

O=[N+]([O-])c1cc[n+]([O-])c2ccccc12 [TS049, 4-Nitroquinoline-1-oxide]
Behavior of gene caused by administration of chemical substance, Gene No. 4846 (gene group (A), Unigene No. Rn.144554): − | Behavior of gene caused by administration of chemical substance, Gene No. 2026 [1]: − | Behavior of gene caused by administration of chemical substance, Gene No. 4218 [1]: − | Behavior of gene caused by administration of chemical substance, Gene No. 6182 (gene group (A), Unigene No. Rn.5834): − | Behavior of gene caused by administration of chemical substance, Gene No. 5600 (gene group (A), Unigene No. Rn.9836): − | Behavior of gene caused by administration of chemical substance, Gene No. 1494 (gene group (B), Unigene No. Rn.1430): − | Behavior of gene caused by administration of chemical substance, Gene No. 2045 (gene group (B), Unigene No. Rn.19329): − | Behavior of gene caused by administration of chemical substance, Gene No. 2203 (gene group (B), Unigene No. Rn.21240): − | Behavior of gene caused by administration of chemical substance, Gene No. 533 (gene group (C), Unigene No. Rn.106184): − | Behavior of gene caused by administration of chemical substance, Gene No. 725 (gene group (C), Unigene No. Rn.108075): − | Behavior of gene caused by administration of chemical substance, Gene No. 1163 (gene group (C), Unigene No. Rn.11766): − | Behavior of gene caused by administration of chemical substance, Gene No. 4973 (gene group (C), Unigene No. Rn.118529): − | Behavior of gene caused by administration of chemical substance, Gene No. 4095 (gene group (C), Unigene No. Rn.119024): − | Behavior of gene caused by administration of chemical substance, Gene No. 1334 [2]: − | Behavior of gene caused by administration of chemical substance, Gene No. 6620 [2]: − | Behavior of gene caused by administration of chemical substance, Gene No. 6303 (gene group (C), Unigene No. Rn.123063): − | Behavior of gene caused by administration of chemical substance, Gene No. 5878 (gene group (C), Unigene No. Rn.143213): − | Behavior of gene caused by administration of chemical substance, Gene No. 1131 (gene group (C), Unigene No. Rn.144946): − | Behavior of gene caused by administration of chemical substance, Gene No. 1562 (gene group (C), Unigene No. Rn.14744): − | Behavior of gene caused by administration of chemical substance, Gene No. 1741 (gene group (C), Unigene No. Rn.1647): − | Behavior of gene caused by administration of chemical substance, Gene No. 893 (gene group (C), Unigene No. Rn.164817): − | Behavior of gene caused by administration of chemical substance, Gene No. 6026 (gene group (C), Unigene No. Rn.167685): − | Behavior of gene caused by administration of chemical substance, Gene No. 154 (gene group (C), Unigene No. Rn.185941): − | Behavior of gene caused by administration of chemical substance, Gene No. 1993 (gene group (C), Unigene No. Rn.18728): − | Behavior of gene caused by administration of chemical substance, Gene No. 813 (gene group (C), Unigene No. Rn.201760): − | Behavior of gene caused by administration of chemical substance, Gene No. 2494 (gene group (C), Unigene No. Rn.23969): − | Behavior of gene caused by administration of chemical substance, Gene No. 2546 (gene group (C), Unigene No. Rn.24561): − | Behavior of gene caused by administration of chemical substance, Gene No. 3776 (gene group (C), Unigene No. Rn.43232): − | Behavior of gene caused by administration of chemical substance, Gene No. 3929 (gene group (C), Unigene No. Rn.4620): − | Behavior of gene caused by administration of chemical substance, Gene No. 1119 (gene group (C), Unigene No. Rn.9757): − | Behavior of gene caused by administration of chemical substance, Gene No. 6742 (gene group (C), Unigene No. Rn.9779): − | Behavior of gene caused by administration of chemical substance, Gene No. 5634 (gene group (C), Unigene No. Rn.9862): − | Behavior of gene caused by administration of chemical substance, Gene No. 5726 (gene group (D), Unigene No. Rn.9939): +
